Assay results from ChEMBL document CHEMBL4483862, “Open-source discovery of chemical leads for next-generation chemoprotective antimalarials” (2018).
pIC50: −log10 of the molar value.

Test system: Plasmodium berghei
Assay: Luciferase/luciferin-expressing antifolate-resistant parasites were used to infect a culture of HepG2 cells that were pre-incubated with compounds. Infected hepatocytes emit light due to the luciferase reaction. Assay results are presented as the percent inhibition of light emission compared to control. […]
Assay type: functional
Details: sporozoite; for pIC50: read-out: LUCIFERASE INFECTION ASSAY - IC50; for IC90: read-out: LUCIFERASE INFECTION ASSAY - IC90

Compound	pIC50	IC90 [µM]
CNc1nc2cnc(Nc3cccc(C(C)C)c3)cc2n1Cc1ccco1	< 5.00	> 10
Cc1ccccc1CN1CCN2C=C(C(=O)Nc3ccc(OCc4ccccc4)cc3)OC2=NC1=O	< 5.00	> 10
CC(C)(C(=O)NCc1ccccc1Br)n1cc(-c2ccc(OCCN3CCCC3)cc2)cn1	< 5.00	> 10
Cc1ccccc1CN1CCN2C(C(=O)NCc3cccc(Cl)c3)=COC2=NC1=O	< 5.00	> 10
CNc1nc2cnc(Nc3ccccc3Cl)cc2n1CC1CC1	< 5.00	> 10
COc1ccc(CNc2nc3cnc(Nc4ccc(F)c(Cl)c4)cc3n2C)cc1OC	< 5.00	> 10
CNc1nc2cnc(Nc3cccc(C)c3)cc2n1-c1cc(OC)c(OC)c(OC)c1	< 5.00	> 10
CNc1nc2cnc(Nc3cc(OC)cc(C(F)(F)F)c3)cc2n1Cc1ccco1	< 5.00	> 10
CCCCc1[nH]nc2ccnc(-c3ccsc3)c12	< 5.00	> 10
Cn1c(NCc2ccccc2F)nc2cnc(Nc3cccc(OC(F)(F)F)c3)cc21	< 5.00	> 10
COc1cc(NC(=O)Nc2ccc3nc(-c4ccoc4)nn3c2)cc(OC)c1OC	< 5.00	> 10
COc1cc(-c2nccc3n[nH]c(-c4cccc(OC(F)(F)F)c4)c23)cc(OC)c1OC	< 5.00	> 10
Cn1c(Nc2cccc(C(F)(F)F)c2)nc2cnc(-c3ccoc3)cc21	< 5.00	> 10
Cn1c(NCc2ccccc2)nc2cnc(-c3ccsc3)cc21	< 5.00	> 10
c1cncc(Cn2cnc3cnc(Nc4cccnc4)cc32)c1	< 5.00	> 10
COc1cc(Nc2cc3c(cn2)nc(NCc2ccccc2)n3C)cc(C(F)(F)F)c1	< 5.00	> 10
Cc1[nH]nc2ccnc(-c3cccc(OC(F)(F)F)c3)c12	< 5.00	> 10
COc1cc(NC(=O)C(C)(C)n2cc(-c3cccnc3)cn2)cc(OC)c1	< 5.00	> 10
CNc1nc2cnc(Nc3cc(C(F)(F)F)ccc3F)cc2n1Cc1ccccc1	< 5.00	> 10
CNc1nc2cnc(Nc3cccc(C(C)=O)c3)cc2n1-c1cccc(F)c1	< 5.00	> 10
COc1ccc(OC)c(S(=O)(=O)N2[C@@H]3CC[C@@H](C3)[C@H]2c2nc3cccc(OCc4ccc(F)cc4)c3[nH]2)c1	< 5.00	> 10

Compound	pIC50	IC90 [µM]
O=C(Nc1cccc(C(F)(F)F)c1)Nc1ccc2nc(-c3ccncc3)nn2c1	< 5.00	> 10
CNc1nc2cnc(Nc3ccccc3)cc2n1-c1cccc(C(F)(F)F)c1	< 5.00	> 10
COc1cccc(NC(=O)c2cccc(C3(CNCc4ccccc4F)CC3)c2)c1	< 5.00	> 10
COc1ccc(NC(=O)c2cccc(C3(CNc4ccccc4)CC3)c2)cn1	< 5.00	> 10
COc1cc(Nc2nc3cnc(-c4cccnc4)cc3n2C)cc(OC)c1OC	5.06	> 10
COc1cccc(CN2CCN3C=C(C(=O)Nc4ccc(Oc5ccccc5)cc4)OC3=NC2=O)c1	< 5.00	> 10
Cc1ccc(NC(=O)N2[C@@H]3CC[C@@H](C3)[C@H]2c2nc3cccc(OCc4ccccc4)c3[nH]2)cc1	< 5.00	> 10
COc1ccc(CNc2nc3cnc(Nc4ccc(OC(F)(F)F)cc4)cc3n2C)cc1OC	< 5.00	> 10
CCCCc1[nH]nc2ccnc(-c3ccc(OC)c(OC)c3)c12	6.01	1.3
c1ccc(Oc2cccc(-c3ccc4ncc(-c5ccoc5)n4n3)c2)cc1	< 5.00	> 10
O=C(Nc1cccnc1)C1=COC2=NC(=O)N(Cc3ccccc3C(F)(F)F)CCN12	< 5.00	> 10
Cn1nc(C(C)(C)C)cc1C(=O)Nc1ccc2nc(-c3cccs3)nn2c1	< 5.00	> 10
CNc1nc2cnc(Nc3ccc(OC)cc3C)cc2n1-c1cc(OC)c(OC)c(OC)c1	< 5.00	> 10
CNc1nc2cnc(Nc3ccc(F)c(Cl)c3)cc2n1-c1cccc(C(F)(F)F)c1	< 5.00	> 10
CNc1nc2cnc(Nc3cccc(N(C)C)c3)cc2n1-c1cc(OC)c(OC)c(OC)c1	< 5.00	> 10
CN(C)C(=O)c1ccc(Nc2cc3c(cn2)nc(-c2ccco2)n3C)cc1	< 5.00	> 10
Cc1ccccc1CN1CCN2C=C(C(=O)Nc3ccc(Oc4ccccc4)cc3)OC2=NC1=O	< 5.00	> 10
CNc1nc2cnc(Nc3cccc(N(C)C)c3)cc2n1-c1cccc(C(F)(F)F)c1	< 5.00	> 10
Cn1c(NCc2ccccc2F)nc2cnc(-c3ccc(Cl)cc3)cc21	< 5.00	> 10
O=C(NCC1CC1)c1cccc(C2(CNCCCN3CCOCC3)CC2)c1	< 5.00	> 10
CC(=O)c1cccc(-c2ccc3ncc(-c4ccoc4)n3n2)c1	< 5.00	> 10

Compound	pIC50	IC90 [µM]
CC(C)c1ccc(NC(=O)C2=CN3CCN(Cc4ccc(F)cc4)C(=O)N=C3O2)cc1	< 5.00	> 10
CNc1nc2cnc(-c3ccc(O)c(OC)c3)cc2n1Cc1ccccc1	5.50	3.99
COc1ccc(CNC(=O)c2ccc(C3(CNc4cccc(OC)c4)CC3)cc2)cc1	< 5.00	> 10
CNc1nc2cnc(Nc3ccc(Oc4ccccc4)cc3)cc2n1C	< 5.00	> 10
COc1cc(CNc2nccc3nc(-c4ccccc4Cl)[nH]c23)cc(OC)c1OC	5.07	> 10
CN(C)c1ccc(-c2cc3c(cn2)nc(NCc2ccccc2)n3C)cc1	< 5.00	> 10
FC(F)(F)Oc1cccc(-c2[nH]nc3ccnc(-c4ccsc4)c23)c1	< 5.00	> 10
CC(C)(C(=O)Nc1ccon1)n1cc(-c2ccc(OCCN3CCCC3)cc2)cn1	< 5.00	> 10
O=C(NCc1cccc(Cl)c1)C1=COC2=NC(=O)N(Cc3cccc(Cl)c3)CCN12	< 5.00	> 10
COc1ccc(OC)c(CCNc2nc3cnc(-c4cccc(NS(C)(=O)=O)c4)cc3n2C)c1	< 5.00	> 10
O=C(NCc1ccccc1)c1cccc(C2(CNc3cccc(OC(F)(F)F)c3)CC2)c1	< 5.00	> 10
Cn1c(Cc2ccccc2)nc2cnc(Nc3cccc(C(F)(F)F)c3)cc21	< 5.00	> 10
Cc1occc1NC(=O)N1[C@@H]2CC[C@@H](C2)[C@H]1c1nc2cccc(OCc3ccc(F)cc3)c2[nH]1	< 5.00	> 10
Cn1c(Nc2ccccc2)nc2cnc(-c3ccc(N4CCOCC4)cc3)cc21	5.03	> 10
CC(C)(C)c1ccc(OCC(=O)Nc2cnn(C(C)(C)C(=O)NCc3ccccc3)c2)cc1	< 5.00	> 10
COc1ccc(OC)c(CCNc2nc3cnc(-c4cccc(Oc5ccccc5)c4)cc3n2C)c1	6.28	1.51
O=C(Nc1ccc(Oc2ccccc2)cc1)C1=CN2CCN(Cc3ccccc3)C(=O)N=C2O1	< 5.00	> 10
O=C(NCC1CC1)c1cccc(C2(CNCc3ccc(F)c(Cl)c3)CC2)c1	< 5.00	> 10
COc1cc(-c2cc3c(cn2)nc(NCc2cccc(C)c2)n3C)ccc1O	< 5.00	> 10
CNc1nc2cnc(Nc3cccc(N(C)C)c3)cc2n1-c1ccccc1	< 5.00	> 10
Cn1c(Nc2ccccc2)nc2cnc(-c3ccc4c(c3)OCO4)cc21	< 5.00	> 10

Compound	pIC50	IC90 [µM]
CS(=O)(=O)c1ccc(-c2cnc3ccc(Cc4ccc(F)cc4)nn23)cc1	5.54	3.4
FC(F)(F)Oc1cccc(-c2ccc3ncc(-c4ccoc4)n3n2)c1	< 5.00	> 10
N#Cc1cccc(CN2CCN3C(C(=O)Nc4ccc(-n5cccc5)cc4)=COC3=NC2=O)c1	< 5.00	> 10
COc1cc(-c2cc3c(cn2)nc(NCc2cccc(C)c2)n3C)cc(OC)c1OC	5.08	> 10
Cn1c(NCC2CCCO2)nc2cnc(-c3cccc(Oc4ccccc4)c3)cc21 (stereo unspecified)	< 5.00	> 10
Cn1c(NCC2CC2)nc2cnc(-c3cccc(Oc4ccccc4)c3)cc21	5.25	> 10
COc1cc(NC(=O)C(C)(C)n2cc(-c3ccc(OCCN4CCCC4)cc3)cn2)cc(OC)c1	< 5.00	> 10
CC(C)(C(=O)NCCc1ccccc1)n1cc(-c2ccc3c(c2)OCCO3)cn1	< 5.00	> 10
CN(C)c1ccc(-c2nccc3n[nH]c(-c4cccc(OC(F)(F)F)c4)c23)cc1	< 5.00	> 10
CNc1nc2cnc(-c3ccccc3C)cc2n1-c1cccc(F)c1	< 5.00	> 10
COc1cc(-c2[nH]nc3ccnc(-c4cccc(OC(F)(F)F)c4)c23)cc(OC)c1OC	< 5.00	> 10
CNc1nc2cnc(-c3cccc(Oc4ccccc4)c3)cc2n1Cc1cccnc1	< 5.00	> 10
COCCn1cnc2cnc(Nc3cccc(F)c3)cc21	< 5.00	> 10
Cn1c(NCc2ccccc2)nc2cnc(Nc3ccc(F)cc3)cc21	< 5.00	> 10
COc1ncccc1-c1cc2c(cn1)nc(NCc1cccc(C)c1)n2C	< 5.00	> 10
Cc1cccc(CNc2nc3cnc(-c4ccccc4)cc3n2C)c1	< 5.00	> 10
COc1cc(-n2cnc3cnc(Nc4cccc(C(F)(F)F)c4)cc32)cc(OC)c1OC	< 5.00	> 10
CS(=O)(=O)c1ccc(CN2CCN3C(C(=O)Nc4cccc(C(F)(F)F)c4)=COC3=NC2=O)cc1	< 5.00	> 10
CNc1nc2cnc(Nc3ccc(SC)cc3)cc2n1Cc1ccc(OC)c(OC)c1	< 5.00	> 10
COc1cccc(-c2nccc3n[nH]c(-c4ccc(OC)cc4C)c23)c1	5.35	> 10
